Laboratory results taken from US8133884B2, “Compounds for the treatment of hepatitis C” (priority 2008, dated 2012).

What was measured:
HCV replicon = HCV replicon assay (FRET or luciferase reporter); assay type: cell-based; conditions: Hepatitis C virus, one of the methods described
Summary of the method: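 HCV replicon Huh-7 cells were exposed to titrated compound at 37 °C, with Alamar blue as a cytotoxicity read. Replication was measured by NS3 cleavage of an EDANS/DABCYL FRET peptide (20 μM, 340/490 nm kinetic read) or by Renilla luciferase, with background from high-dose protease inhibitor wells. EC50 was taken as 50% signal reduction; a 384-well format used 3.0×10^3 cells/well, 0.5% DMSO and 3 days.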

HCV NS5B = target: T1, HCV NS5B (Hepatitis C virus genotype 1b, UniProt Q9WMX2); test: Modified HCV NS5B RdRp enzyme assay (preincubation protocol); assay type: biochemical
T1 construct: The protein was expressed with an 18 amino acid C-terminal truncation to enhance the solubility; made in house; host or cells: E. coli BL21(DE3)
T1 sequence (Q9WMX2 2420-2992): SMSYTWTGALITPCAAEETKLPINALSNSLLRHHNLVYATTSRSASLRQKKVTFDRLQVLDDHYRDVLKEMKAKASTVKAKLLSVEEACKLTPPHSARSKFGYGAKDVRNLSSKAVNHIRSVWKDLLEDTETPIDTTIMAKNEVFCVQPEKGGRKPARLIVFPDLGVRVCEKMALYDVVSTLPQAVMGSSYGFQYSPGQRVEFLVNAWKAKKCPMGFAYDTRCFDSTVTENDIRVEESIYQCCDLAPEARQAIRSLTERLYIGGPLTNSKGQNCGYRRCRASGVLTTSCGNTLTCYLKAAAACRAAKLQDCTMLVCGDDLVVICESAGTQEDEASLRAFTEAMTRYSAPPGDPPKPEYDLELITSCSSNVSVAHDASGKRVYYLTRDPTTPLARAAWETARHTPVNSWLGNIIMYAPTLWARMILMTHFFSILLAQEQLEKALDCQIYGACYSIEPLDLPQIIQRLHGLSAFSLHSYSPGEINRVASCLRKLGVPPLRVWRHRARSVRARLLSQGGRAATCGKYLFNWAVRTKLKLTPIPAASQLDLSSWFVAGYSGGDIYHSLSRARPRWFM
Summary of the method: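 C-terminally truncated (Δ18) genotype 1b NS5B from E. coli, 14 nM, added to compound first, then polyA template (0.2 nM), 3H-UTP (0.29 μM) and oligo-dT12 primer precaptured on streptavidin SPA beads (20 nM). Run 4 h at 30° C, pH 7.5, 2% DMSO; IC50 fitted from seven concentrations.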

Structure (SMILES) | EC50 (HCV replicon; class symbol) | EC50 (HCV replicon; exact value) | IC50 (HCV NS5B; class symbol) | IC50 (HCV NS5B; exact value)
COc1ccc2c(c1)C=C(c1c(C(=O)N3C4CCC3CC(C)(O)C4)cnn1C1CCN(C)CC1)Cn1c-2c(C2CCCCC2)c2ccc(C(=O)NS(=O)(=O)C(C)C)cc21 (stereo not drawn) | 1.7 to 500 nM | 10 nM | 1.7 to 500 nM | 96 nM
COc1ccc2c(c1)C=C(c1c(C(=O)N3C4CCC3COC4)c(C)nn1C1CCC1)Cn1c-2c(C2CCCCC2)c2ccc(C(=O)NS(=O)(=O)C(C)C)cc21 | 1.7 to 500 nM | – | 1.7 to 500 nM | –
CCN1C[C@@H]2C[C@H]1CN2C(=O)c1cnn(C2CCOCC2)c1C1=Cc2cc(OC)ccc2-c2c(C3CCCCC3)c3ccc(C(=O)NS(=O)(=O)C(C)C)cc3n2C1 | 1.7 to 500 nM | – | 1.7 to 500 nM | –
COc1ccc2c(c1)C=C(c1c(C(=O)N3C[C@@H](C)O[C@@H](C)C3)cnn1-c1ccnc(C)c1)Cn1c-2c(C2CCCCC2)c2ccc(C(=O)NS(=O)(=O)C(C)C)cc21 | 1.7 to 500 nM | – | 1.7 to 500 nM | –
COc1ccc2c(c1)C=C(c1c(C(=O)N3CCOCC3)ncn1C1CCC1)Cn1c-2c(C2CCCCC2)c2ccc(C(=O)NS(=O)(=O)C(C)C)cc21 | 1.7 to 500 nM | 70 nM | 1.7 to 500 nM | 9.7 nM
COc1ccc2c(c1)C=C(c1c(C(=O)N3C4CCC3CN(C)C4)c(C)nn1C1CCC1)Cn1c-2c(C2CCCCC2)c2ccc(C(=O)NS(=O)(=O)C(C)C)cc21 | 1.7 to 500 nM | – | 1.7 to 500 nM | –
COc1ccc2c(c1)C=C(c1c(C(=O)N3C[C@@H](C)O[C@@H](C)C3)cnn1-c1cnccn1)Cn1c-2c(C2CCCCC2)c2ccc(C(=O)NS(=O)(=O)C(C)C)cc21 | 1.7 to 500 nM | – | 1.7 to 500 nM | –
COc1ccc2c(c1)C=C(c1c(C(=O)N3C[C@@H]4C[C@H]3CN4)cnn1C1CCC1)Cn1c-2c(C2CCCCC2)c2ccc(C(=O)NS(=O)(=O)C(C)C)cc21 | 1.7 to 500 nM | – | 1.7 to 500 nM | –
COc1ccc2c(c1)C=C(c1c(C(=O)N3C[C@@H](C)O[C@@H](C)C3)cnn1C1CCOCC1)Cn1c-2c(C2CCCCC2)c2ccc(C(=O)NS(=O)(=O)CC(C)C)cc21 | 1.7 to 500 nM | – | 1.7 to 500 nM | –
COc1ccc2c(c1)C=C(c1c(C(=O)N3C[C@@H](C)O[C@@H](C)C3)cnn1C1CCCC1)Cn1c-2c(C2CCCCC2)c2ccc(C(=O)NS(=O)(=O)C(C)C)cc21 | 1.7 to 500 nM | – | 1.7 to 500 nM | –
CCOC(=O)c1cnn(-c2ccncc2C)c1C1=Cc2cc(OC)ccc2-c2c(C3CCCCC3)c3ccc(C(=O)NS(=O)(=O)C(C)C)cc3n2C1 | 1.7 to 500 nM | – | 1.7 to 500 nM | –
COc1ccc2c(c1)C=C(c1c(C(=O)N3C[C@@H](C)N(C)[C@@H](C)C3)cnn1C1CCOCC1)Cn1c-2c(C2CCCCC2)c2ccc(C(=O)NS(=O)(=O)C(C)C)cc21 | 1.7 to 500 nM | – | 1.7 to 500 nM | –
CCN1CC2CC1CN2C(=O)c1c(C2=Cc3cc(OC)ccc3-c3c(C4CCCCC4)c4ccc(C(=O)NS(=O)(=O)C(C)C)cc4n3C2)ncn1C1CCC1 (stereo not drawn) | 1.7 to 500 nM | – | 1.7 to 500 nM | –
COc1ccc2c(c1)C=C(c1c(C(=O)N3C4CCC3CN(C)C4)cnn1C1CCC1)Cn1c-2c(C2CCCCC2)c2ccc(C(=O)NS(=O)(=O)C(C)C)cc21 | 1.7 to 500 nM | – | 1.7 to 500 nM | –
COc1ccc2c(c1)C=C(c1c(C(=O)N3C[C@@H](C)O[C@@H](C)C3)cnn1-c1cccnc1)Cn1c-2c(C2CCCCC2)c2ccc(C(=O)NS(=O)(=O)C(C)C)cc21 | 1.7 to 500 nM | – | 1.7 to 500 nM | –
COc1ccc2c(c1)C=C(c1c(C(=O)N3CCOCC3)cnn1-c1ccncc1C)Cn1c-2c(C2CCCCC2)c2ccc(C(=O)NS(=O)(=O)C(C)C)cc21 | 1.7 to 500 nM | – | 1.7 to 500 nM | –
COc1ccc2c(c1)C=C(c1c(C(=O)N3CCOCC3)cnn1C1CC1)Cn1c-2c(C2CCCCC2)c2ccc(C(=O)NS(=O)(=O)C(C)C)cc21 | 1.7 to 500 nM | – | 1.7 to 500 nM | –
COc1ccc2c(c1)C=C(c1c(C(=O)N3CC[C@H]4C[C@H]43)cnn1C1CCC1)Cn1c-2c(C2CCCCC2)c2ccc(C(=O)NS(=O)(=O)C(C)C)cc21 | 1.7 to 500 nM | – | 1.7 to 500 nM | –

Structure (SMILES) | EC50 (HCV replicon; class symbol) | EC50 (HCV replicon; exact value) | IC50 (HCV NS5B; class symbol) | IC50 (HCV NS5B; exact value)
COc1ccc2c(c1)C=C(c1c(C(=O)N3C[C@@H](C)O[C@@H](C)C3)cnn1-c1ccncc1C)Cn1c-2c(C2CCCCC2)c2ccc(C(=O)NS(=O)(=O)C(C)C)cc21 | 1.7 to 500 nM | – | 1.7 to 500 nM | –
COc1ccc2c(c1)C=C(c1c(C(=O)N3C[C@@H](C)O[C@@H](C)C3)c(C)nn1C1CCC1)Cn1c-2c(C2CCCCC2)c2ccc(C(=O)NS(=O)(=O)C(C)C)cc21 | 1.7 to 500 nM | 10 nM | 1.7 to 500 nM | 6.4 nM
COc1ccc2c(c1)C=C(c1c(C(=O)N3CC4CCC(C3)O4)cnn1C1CCC1)Cn1c-2c(C2CCCCC2)c2ccc(C(=O)NS(=O)(=O)C(C)C)cc21 | 1.7 to 500 nM | 10 nM | 1.7 to 500 nM | 3.9 nM
COc1ccc2c(c1)C=C(c1c(C(=O)N3C[C@@H](C)O[C@@H](C)C3)cnn1-c1ccccn1)Cn1c-2c(C2CCCCC2)c2ccc(C(=O)NS(=O)(=O)C(C)C)cc21 | 1.7 to 500 nM | – | 1.7 to 500 nM | –
COCC1CN(C(=O)c2cnn(-c3ccncc3C)c2C2=Cc3cc(OC)ccc3-c3c(C4CCCCC4)c4ccc(C(=O)NS(=O)(=O)C(C)C)cc4n3C2)CCO1 (stereo not drawn) | 1.7 to 500 nM | 170 nM | 1.7 to 500 nM | 5.5 nM
COc1ccc2c(c1)C=C(c1c(C(=O)N3CC(F)(F)C3)cnn1C1CCC1)Cn1c-2c(C2CCCCC2)c2ccc(C(=O)NS(=O)(=O)C(C)C)cc21 | 1.7 to 500 nM | – | 1.7 to 500 nM | –
COc1ccc2c(c1)C=C(c1c(C(=O)N3C[C@@H]4C[C@H]3CN4C)c(C)nn1C1CCC1)Cn1c-2c(C2CCCCC2)c2ccc(C(=O)NS(=O)(=O)C(C)C)cc21 | 1.7 to 500 nM | – | 1.7 to 500 nM | –
COc1ccc2c(c1)C=C(c1c(C(=O)N3C[C@]4(C)CN(C)C[C@](C)(C3)C4)cnn1C1CCC1)Cn1c-2c(C2CCCCC2)c2ccc(C(=O)NS(=O)(=O)C(C)C)cc21 | 1.7 to 500 nM | – | 1.7 to 500 nM | –
COc1ccc2c(c1)C=C(c1c(C(=O)N3C[C@@H](C)N(C)[C@@H](C)C3)c(C)nn1C1CCC1)Cn1c-2c(C2CCCCC2)c2ccc(C(=O)NS(=O)(=O)C(C)C)cc21 | 1.7 to 500 nM | – | 1.7 to 500 nM | –
COc1ccc2c(c1)C=C(c1c(C(=O)N3CC4CCC(C3)N4C)cnn1C1CCC1)Cn1c-2c(C2CCCCC2)c2ccc(C(=O)NS(=O)(=O)CC(C)C)cc21 | 1.7 to 500 nM | – | 1.7 to 500 nM | –
COc1ccc2c(c1)C=C(c1c(C(=O)N3CC4CCC(C3)N4C)cnn1C1CCOCC1)Cn1c-2c(C2CCCCC2)c2ccc(C(=O)NS(=O)(=O)CC(C)C)cc21 | 1.7 to 500 nM | – | 1.7 to 500 nM | –
COc1ccc2c(c1)C=C(c1c(C(=O)N3C4COCC3COC4)cnn1C1CCN(C)CC1)Cn1c-2c(C2CCCCC2)c2ccc(C(=O)NS(=O)(=O)C(C)C)cc21 | 1.7 to 500 nM | 130 nM | 1.7 to 500 nM | 7.5 nM
CCN1C[C@@H]2C[C@H]1CN2C(=O)c1cnn(C2CCOCC2)c1C1=Cc2cc(OC)ccc2-c2c(C3CCCCC3)c3ccc(C(=O)NS(=O)(=O)CC(C)C)cc3n2C1 | 1.7 to 500 nM | – | 1.7 to 500 nM | –
COc1ccc2c(c1)C=C(c1c(C(=O)N3C[C@@H](C)O[C@@H](C)C3)cnn1C1CCOCC1)Cn1c-2c(C2CCCCC2)c2ccc(C(=O)NS(=O)(=O)C(C)C)cc21 | 1.7 to 500 nM | 8.9 nM | 1.7 to 500 nM | 2.6 nM
COc1ccc2c(c1)C=C(c1c(C(=O)N3CCOCC3)ncn1C1CC1)Cn1c-2c(C2CCCCC2)c2ccc(C(=O)NS(=O)(=O)C(C)C)cc21 | 1.7 to 500 nM | – | 1.7 to 500 nM | –
CCOC(=O)c1cnn(C2CCN(C)CC2)c1C1=Cc2cc(OC)ccc2-c2c(C3CCCCC3)c3ccc(C(=O)O)cc3n2C1 | 1.7 to 500 nM | – | 1.7 to 500 nM | –
COc1ccc2c(c1)C=C(c1c(C(=O)N3C[C@@H](C)N(C)[C@@H](C)C3)cnn1C1CC1)Cn1c-2c(C2CCCCC2)c2ccc(C(=O)NS(=O)(=O)C(C)C)cc21 | 1.7 to 500 nM | – | 1.7 to 500 nM | –
